Earlier results, collected in US9399025B2, “Modified release dosage forms of skeletal muscle relaxants” (APTALIS PHARMATECH, INC., priority 2003, dated 2016).

Elimination half-life (after oral administration): one to three
Absorption after oral administration (oral): well absorbed
SMILES: CN(C)CCC=C1c2ccccc2C=Cc2ccccc21 [Cyclobenzaprine]
